Values of other authors as cited in patent US20120034273A1, “EXTRUDATE HAVING SPICULAR ACTIVE SUBSTANCES” (Bayer Animal Health GmbH, priority 2008, published 2012).

Conditions: stated in words, no test described

solubility in water: poorly soluble in water
SMILES: O=C(C1CCCCC1)N1CC(=O)N2CCc3ccccc3C2C1 (stereo not shown) [praziquantel]
